Values of other authors as cited in US10022309B2, “Composition, comprising hydrofluoric acid, for inhibiting dental erosion” ([…], priority 2004, dated 2018).

Key:
[1] = pre-treatment with 1% neutral NaF or 4% TiF4; 50 mM citric acid with calcium and phosphate, pH 3, 30 min; without treatment 4.5 um
[2] = aqueous solution
[3] = 24 h treatment (1.2% NaF or Duraphat varnish); then cola-drink pH 2.6 for 4 min

## [F][Ti]([F])([F])[F] [TiF4, titanium tetrafluoride]
[1]
  mean lesion depth: 2.7 um

## F [hydrofluoric acid]
[2]
  pKa: 3.45

## [F-].[Na+] [NaF, sodium fluoride]
[1]
  mean lesion depth: 3.5 um
[3]
  hardness of enamel compared with untreated control: improved
